Source: patent publication US20250241976A1, “ADMINISTRATION OF AN ANTICANCER PEPTIDE” (Verrica Pharmaceuticals, Inc., priority 2024, published 2025)
Where a SMILES comes first, the peptide text is derived from it. [ ]: non-standard residue; d: D form. Dip = N[C@H](C(=O)O)C(c1ccccc1)c1ccccc1

Assays:
[1] = test system: basal cell carcinoma (BCC) lesion; assay: Clinical study: intradermal injection of Peptide A into basal cell carcinoma lesions, with TRAEs, withdrawals and necrosis recorded; type: in vivo, human
Procedure: This study involved human adults ≥18 years of age with clinically suspected BCC with at least 1 (and up to 5) eligible lesion(s) suitable for biopsy and excision. The size of the lesion(s) were ≥0.5 cm and ≤2 cm in longest diameter prior to punch biopsy or ≥1 cm and ≤2 cm in longest diameter prior to shave biopsy. Histological diagnosis of nodular, micronodular, or superficial BCC, as confirmed by punch or shave biopsy, was performed within 90 days of treatment.
(§1) Peptide A was provided as the acetate salt, 20 mg of lyophilized powder per vial for injection. The powder was reconstituted in saline to a concentration ranging from 4-20 mg/mL based upon the target dose and volume for each subject. Peptide A was supplied in colorless glass vials (Ph. Eur. hydrolytic class I) fitted with rubber stopper (Ph. Eur. type I).
Peptide A (acetate salt) was administered via intradermal injection into a single target lesion (between ≥0.5 cm and ≤2 cm in longest diameter) using the 1-mL syringe and 30-gauge 0.5-inch needle. The subjects were positioned in a way so that the target lesion lies flat, to avoid any dependent areas that may be susceptible to leakage of the pharmaceutical composition. Subsequent injections for the same lesion were given in remaining nonnecrotic areas of the lesion, as assessed prior to treatment. […]
Cohort 2 was assigned a regimen of 8 mg of Peptide A for each treatment day (with no partitioned administration on any day).
[…] The total 500 μL (8 mg) dosage volume is divided into 2 injections given at least 15 minutes and no more than 30 minutes apart, with 30% (150 μL) administered in the first injection and the remaining 70% (350 μL) with the second injection.
A radial administration method was also used for Cohorts 4 and 5. The formulation with Peptide A is injected intradermally for all injections and subcutaneous injection should be avoided. It is important to ensure adequate and even distribution of Peptide A across the entire base of the lesion. To accomplish adequate and even distribution of Peptide A across the entire lesion: The first 150 μL is injected as centrally as possible such that Peptide A can distribute radially outward; and the second (350 μL) portion is injected in a clockface fashion (i.e., at 12, 3, 6, 9 o'clock as shown in FIG. 1) as needed to ensure uniform distribution into the periphery of the lesion. The needle is inserted at a 10- to 20-degree angle for a flat lesion, or at an increased angle (i.e., greater than 20-degree) for a raised lesion.

[2] = Storage of reconstituted Peptide A solution; type: physicochemical
Procedure: as §1
Peptide A vials (20 mg/vial) were stored at 2-8° C. (36-46° F.) or −20±5° C. (−13 to 5° F.) protected from light at the study site, separated from other drugs. The reconstituted Peptide A solution can be stored for up to 12 hours in a refrigerator at 2-8° C. (36-46° F.). Syringes with Peptide A drawn from the vial can be stored for up to 4 hours at 20-25° C. (68-77° F.) protected from light. Any unused portion was discarded.

NCCCC[C@H](NC(=O)[C@@H](NC(=O)[C@H](Cc1c[nH]c2ccccc12)NC(=O)[C@H](CCCCN)NC(=O)[C@H](CCCCN)NC(=O)[C@H](Cc1c[nH]c2ccccc12)NC(=O)[C@H](Cc1c[nH]c2ccccc12)NC(=O)[C@H](CCCCN)NC(=O)[C@@H](N)CCCCN)C(c1ccccc1)c1ccccc1)C(N)=O [Peptide A, KKWWKKWDipK-NH2] (H-KKWWKKW[Dip]K-NH2)
Subjects experiencing TRAEs of burning and pain at the injection site ([1]; Cohorts 1 and 2, 4 mg then 8 mg or 8 mg daily, no partitioned administration): Several subjects | Subjects withdrawn from treatment due to TRAEs ([1]; Cohorts 1 and 2, no partitioned administration): Two subjects withdrew | Change in TRAEs ([1]; Cohorts 4 and 5, partitioned (30%/70%, 15-30 min apart) and radial administration, 8 mg in 500 μL): marked decrease | Withdrawal from study treatment due to TRAEs of burning or pain at the injection site ([1]; Cohorts 4 and 5 and expansion cohorts (10, 10, 26, 27 subjects enrolled), partitioned and radial administration, 8 mg): No subjects have withdrawn from study | Treatment status after TRAE ([1]; Subject 3, Cohort 1, W1D2, no partitioned administration, subject withdrawn from treatment): Discontinued | Lesion necrosis status ([1]; Subject 5, Cohort 1, W1D3 after 4 mg W1D1 and 8 mg W1D2, no partitioned administration, no injection given): Complete | TRAEs (pain severity) ([1]; Subject 8, Cohort 2, 8 mg on W1D1, no partitioned administration): experiencing moderate | Duration of pain post-treatment ([1]; Subject 8, Cohort 2, 8 mg, no partitioned administration): about 3-4 hours post- | Treatment status after TRAE ([1]; Subject 8, Cohort 2, W1D2, no partitioned administration, subject withdrew from treatment): Discontinued | TRAEs reported ([1]; Subject 9, Cohort 2, after the W1D2 treatment (8 mg), no partitioned administration, subject continued treatment): injection-site burning | Storage time of syringes with Peptide A drawn from the vial ([2]; 20-25° C., protected from light): up to 4 hours | Storage time of reconstituted Peptide A solution ([2]; reconstituted in saline, refrigerator at 2-8° C.): up to 12 hours
